Laboratory results taken from patent US6407029B1, “Mixtures comprising tetrakis(pyrrolidino/piperdino)phosphonium salts” (priority 1999, dated 2002).

Experiment: dermal toxicity
Assay type: in vivo
Conditions: species and method not stated

| Compound | dermal toxicity |
| --- | --- |
| C1CCN([P+](N2CCCC2)(N2CCCC2)N2CCCC2)C1.[Cl-] [tetrakis(pyrrolidino)phosphonium chloride] | ~390 mg/kg body weight |
| C1CCN([P+](N2CCCCC2)(N2CCCCC2)N2CCCCC2)CC1.[Cl-] [tetrakis(piperidino)phosphonium chloride] | ~200 mg/kg body weight |
| CCN(CC)[P+](N(CC)CC)(N(CC)CC)N(CC)CC.[Br-] [tetrakis(diethylamino)phosphonium bromide, reference compound] | < 50 mg/kg body weight |
